Data reported in patent publication US20210092955A1, “METHOD OF CONTROLLING HERBICIDE RESISTANT WEEDS IN CROPS” (SUMITIMO CHEMICAL COMPANY, LIMITED, priority 2018, published 2021).

Tests used:
Type in all cases: in vivo
[1] = tested on: Amaranthus palmeri having Gly210 deletion in PPO2; assay: Herbicidal effect, foliar spray in greenhouse pots (Example 4609, comparison); conditions: rating 0 to 100; 25 g/ha; foliar spray 216 L/ha; 17 days after treatment; known art comparison
From the text: (§1) Plastic pots each having a diameter of 8 cm and a height of 7 cm were filled with the soil and seedlings of Amaranthus palmeri having a Gly399Ala mutation in PPO2 (originated from Mississippi, USA) were planted. After cultivation in a greenhouse for 31 days, an aqueous spray liquid prepared by diluting a predetermined amount of a commercial saflufenacil formulation (suspension concentrate containing 29.74% of saflufenacil, manufactured by BASF Corp. under the trade name of Sharpen) with water was sprayed uniformly over the weed using a sprayer in an amount of 216 L/ha. Then, the weeds were cultivated in a greenhouse for 17 days, followed by examining the herbicidal effects. For comparison, Amaranthus palmeri having Gly210 deletion in PPO2 (originated from Illinois, USA) and commercially available wild-type Amaranthus palmeri were tested.

[2] = tested on: wild-type Amaranthus palmeri; assay: Herbicidal effect, foliar spray in greenhouse pots (Example 4609); conditions: rating 0 to 100, 25 g/ha, foliar spray 216 L/ha, 17 days after treatment
From the text: as §1

[3] = tested on: Amaranthus palmeri having a Gly399Ala mutation in PPO2; assay: as above; conditions: rating 0 to 100; 25 g/ha; foliar spray 216 L/ha; 17 days after treatment
From the text: as §1

[4] = tested on: waterhemp having Gly210 deletion in PPO2; assay: Herbicidal effect, foliar spray in greenhouse pots (Example 4610, comparison); conditions: rating 0 to 100; 100 g/ha; foliar spray 200 L/ha; 4 days after treatment; known art comparison
From the text: (§2) Plastic pots each having a diameter of 8 cm and a height of 7 cm were filled with the soil and seedlings of Amaranthus palmeri having Arg128Gly mutation in PPO2 (originated from Arkansas, USA) were planted. After cultivaited in a greenhouse for 42 days, an aqueous spray liquid prepared by diluting a predetermined amount of trifludimoxazin formulation (emulsifiable concentrate obtained by mixing 20 parts of trifludimoxazin with 80 parts liquid cocktail (5:1 mixture of cyclohexanone and Sorpol 2680X (TOHO Chemical Industry Co., Ltd.))) with water, and its mixture with saflufenacil made by additionally diluting a predetermined amount of commercial saflufenacil formulation (suspension concentrate containing 29.74% of saflufenacil, manufactured by BASF Corp. under the trade name of Sharpen) were separately sprayed over the weed using a sprayer in an amount of 200 L/ha uniformly. Then, the weeds were cultivated in a greenhouse for 4 days, followed by examininig the herbicidal effects on the weeds. For comparison, waterhemp having Gly210 deletion in PPO2 (originated from Illinois, USA), commercially available wild-type waterhemp, and commercially available wild-type Amaranthus palmeri were tested.

wild-type waterhemp = assay: as above; conditions: rating 0 to 100; 100 g/ha; foliar spray 200 L/ha; 4 days after treatment
From the text: as §2

[5] = tested on: Amaranthus palmeri having Arg128Gly mutation in PPO2; assay: Herbicidal effect, foliar spray in greenhouse pots (Example 4610); conditions: rating 0 to 100; 100 g/ha; foliar spray 200 L/ha; 4 days after treatment
From the text: as §2

[6] = tested on: wild-type Amaranthus palmeri; assay: as above; conditions: rating 0 to 100; 100 g/ha; foliar spray 200 L/ha; 4 days after treatment
From the text: as §2

[7] = tested on: Amaranthus palmeri having an Arg128Met mutation in PPO2; assay: Soil surface treatment on day of sowing weed and soybean (Example 2); conditions: 10, 20, 40, or 80 g/ha on soil surface on day of sowing; examined after 21 days
From the text: (§3) Amaranthus palmeri having an Arg128Met mutation in PPO2 and soybean are sown in a plastic pot. On the same day, a compound X is applied to the surface of soil in an amount of 10, 20, 40, or 80 g/ha by spraying 200 L/ha of an aqueous dilution containing the compound X. Then, the weeds and soybean are cultivated in a greenhouse to examine the effects on the weeds and phytotoxic effects on soybean after 21 days.

[8] = tested on: Amaranthus palmeri having an Arg128Met mutation in PPO2; assay: Soil surface treatment before sowing soybean (Example 1); conditions: 10, 20, 40, or 80 g/ha on soil surface on day of weed sowing; soybean sown after 7 days; examined after 14 days
From the text: as §3, with “is” for “and soybean are”, “[…].” for “X.”, “weeds” for “weeds and soybean”, “greenhouse and soybean seeds are sown after 7 days,” for “greenhouse”, “14” for “21”

[9] = tested on: Amaranthus palmeri having an Arg128Met mutation in PPO2; assay: Foliar treatment 21 days after sowing (Example 3); conditions: 10, 20, 40, or 80 g/ha foliar treatment 21 days after sowing; examined 14 days after the treatment
From the text: Amaranthus palmeri having an Arg128Met mutation in PPO2 and soybean are sown in a plastic pot. Then, the weeds and soybean are cultivated in a greenhouse. A compound X is applied in an amount of 10, 20, 40, or 80 g/ha by spraying 200 L/ha of an aqueous dilution containing the compound X to perform foliar treatment 21 days after the sowing. Then, the weeds and soybean are cultivated in a greenhouse to examine the effects on the weeds and phytotoxic effects on soybean 14 days after the treatment.

## CC(C)N(C)S(=O)(=O)NC(=O)c1cc(-n2c(=O)cc(C(F)(F)F)n(C)c2=O)c(F)cc1Cl [Saflufenacil]
[1]
  herbicidal effect, Amaranthus palmeri Gly210 deletion: 65
[2]; Table 1
  herbicidal effect, Amaranthus palmeri Wild-type: 100
[2]; Table 2
  herbicidal effect, Amaranthus palmeri Wild-type: 100
[3]
  herbicidal effect, Amaranthus palmeri Gly399Ala mutation: 100

## C#CCN1C(=O)C(F)(F)Oc2cc(F)c(-n3c(=O)n(C)c(=S)n(C)c3=O)cc21 [Trifludimoxazin]
[4]
  herbicidal effect, waterhemp Gly210 deletion: 50
wild-type waterhemp
  herbicidal effect, waterhemp Wild-type: 95
[5]
  herbicidal effect, Amaranthus palmeri Arg128Gly mutation: 88
[6]
  herbicidal effect, Amaranthus palmeri Wild-type: 90

## CCOC(=O)COc1ncccc1Oc1cc(-n2c(=O)cc(C(F)(F)F)n(C)c2=O)c(F)cc1Cl [compound X, Ethyl [3-[2-chloro-4-fluoro-5-(1-methyl-6-trifluoromethyl-2,1-dioxo-1,2,3,1-tetrahydropyrimidine-3-yl)phenoxy]-2-pyridyloxy]acetate]
[7]
  effects on the weeds: valuable effect
[8]
  effects on the weeds: valuable effect
[9]
  effects on the weeds: valuable effect
